Experimental data from patent US20140235630A1, “COMPOSITIONS AND METHODS FOR THE TREATMENT OF PROLIFERATIVE DISEASES” (Beth Israel Deaconess Medical Center, Inc., priority 2011, published 2014).

Experiments:
[1] = test system: mouse lung tumors with transgenic H1047R mutant of PIK3CA; conditions: within two days; cited from earlier work
[2] = test system: blood vessels in tumors; conditions: in vivo; cited from earlier work
[3] = test system: HCC1937 cells; experiment: DNA damage response immunoblots with or without ionizing radiation (10 Gy); assay type: cell-based, human
Protocol: FIG. 5A are immunoblots showing the effects of Compound A, ATM inhibitor KU-55933, and their combination on the DNA damage response. HCC1937 were treated for 18 hours with Compound A at 2.5 μM, KU55933 at 10 μM, or their combination, subjected to ionizing irradiation with 10 Gy or mock, lysed 6 hours later, and subjected to immunoblotting. […] Immunoblots were performed using the Nupage System (Invitrogen). The protein concentration was determined using Bradford reagent (Biorad). A total of 20 μg of protein were loaded, except for PAR, Phospho ATM and Phospho DNA-PK/PRKDC western blots, where 40 μg were loaded. Tumor tissue lysates were prepared similarly with the exception of tissue homogenization by using an electric homogenizer for 30 secs after addition of the lysis buffer. Primary antibodies used for western blotting were total AKT (9272), Cleaved […] 3 (9661), total ERK (4695), Phospho AKT Ser473 (4058), Phospho ERK Thr202/Tyr204 (9106), Phospho-Histone H2AX Ser139 (2577), PTEN (9559) from Cell Signaling. Phospho ATM […] (2152-1), Phospho DNA-PK/PRKDC […] (3892-1) from Epitomics, Inc. CD31 (ab28364), Actin (ab6276), INPP4B (ab81269) from Abcam; pADPr (sc56198) from Santacruz Biotechnology; and Ki-67 (RM-9106) was purchased from Thermo Scientific.

Row | Structure (SMILES) | FDG-PET signal [1] | sprouting of new blood vessels in tumors [2] | H2AX phosphorylation in response to ionizing radiation ([3]; 18 hours pre-treatment, 10 Gy, lysed 6 hours later) | auto-phosphorylation of ATM ([3]; KU-55933 10 μM, 18 hours)
1 | Cn1c(=O)n(-c2ccc(C(C)(C)C#N)cc2)c2c3cc(-c4cnc5ccccc5c4)ccc3ncc21 [BEZ235] | caused a reduction in the FDG-PET signal | inhibits the sprouting of new blood vessels |  | 
2 | O=c1cc(-c2cccc3c2Sc2ccccc2S3)oc(N2CCOCC2)c1 [KU-55933, reference compound] |  |  | prevented the increase | decrease
